Reference: paper PMC5830399, “Aggregating sequences that occur in many proteins constitute weak spots of bacterial proteostasis” (Nature Communications, 2018)
Converted amounts (≈) assume the structure as drawn. Where two headings read alike, the source gives them in different places. Peptide text beside a SMILES is read from it.

Legend:
E. coli O157:H7 = format: cell-based, Escherichia coli
Protocol: (§1) The MICs of active peptides were determined via the Broth microdilution assay according to the EUCAST guideline, which was performed in 96-well polystyrene flat bottom microtiter plates (BD Biosciences). Briefly, a single colony was inoculated into 5 mL LB medium and grown to the end-exponential growth phase in a shaking incubator at 37 °C. Cultures were subsequently diluted to an OD600 (optical density) of 0.002 ([…]) in fresh LB medium. One hundred microliters of LB medium with different concentration of peptides ranging from 100 to 0.75 µg/mL were serially diluted to the sterile 96-well plate (at least three wells in each plate). Afterwards, 100 µL of the diluted bacteria were pipetted into 96-well plates containing different concentration of peptides. In each plate, the grown bacteria with the maximum concentration of carrier and medium were considered as positive and negative controls, respectively. Thereafter, 96-well plates were statically incubated overnight at 37 °C to allow bacterial growth. OD was measured at 590 nm for 1 s using a multipurpose ultraviolet–visible plate reader, and the absorbance of the growth bacteria was measured using a Perkin Elmer spectrophotometer (1420 Multilabel Counter Victor 3).

E. coli O157 = format: cell-based, Escherichia coli; conditions: HPLC-purified peptide
Description: In order to investigate whether APR redundancy does result in proteostatic collapse, we selected resynthesized and high-performance liquid chromatography (HPLC)-purified four positive peptides from the screen, P2, P5, P14, and P105, as well as three negative peptides, P3, P4, and P11, and confirmed their MIC and minimum bactericidal concentration (MBC) values (Table 1). […] These IBs, which are also called large polar aggregates, could be stained with pentameric formyl thiophene acetic acid (pFTAA, Fig. 1j and supplementary Fig. 3), an extensively characterized amyloid-specific dye[20]–[22], which specifically binds to amyloid-like aggregates as well as disease-associated protein IBs[22]. This IB-staining pattern could be observed for all bactericidal peptides, but not for any of the other peptides, although some other pFTAA-positive structures could be discerned (Supplementary Fig. 3). We confirmed the cross-β-structure content of IB using thioflavin-T staining and correlative atomic force microscopy nanoimaging and Fourier transform infrared spectroscopy (Supplementary Note 2 and Supplementary Fig. 4).

human erythrocytes = assay: In vitro hemolytic activity test; format: cell-based; conditions: 1 h 37 °C
Protocol: The hemolytic activities of peptides were determined by hemolysis against human erythrocytes. Pooled fresh blood was obtained from healthy volunteers (Red Cross Flanders) and erythrocytes were collected by centrifugation 1,000 × g for 5 min (anticoagulated by EDTAK). The pellet was washed three times with phosphate-buffered saline (PBS) and was diluted to a concentration of 8% in PBS. One hundred microliters of 8% red blood cells solution was mixed with 100 µL of serial dilutions of peptides in PBS buffer in 96-well plates (BD Biosciences). The reaction mixtures were incubated for 1 h at 37 °C. Thereupon, the plate was centrifuged for 10 min at 1,000 × g and 100 µL of supernatant was transferred to a sterilized 96-well plate (BD Biosciences, flat bottom). The release of hemoglobin was determined by measuring the absorbance of the supernatant at 405 nm. […] Erythrocytes in 1% Triton and maximum used concentration of vehicle were used as the control of 100 and 0% hemolysis, respectively.

Swiss mice = assay: In vivo toxicity test; set-up: species or system mouse; conditions: Swiss female mice, 30 mg/kg IP once a day for 18 days (Supplementary Note 8)
Protocol: The procedures used in the assays were approved by the local Animal Ethics Committee and conform to international standards of animal welfare (Approval P067/2015 of the Ethical Committee of KULeuven). A safe concentration of peptides of […] was used for this experiment.
Briefly, 5–6-week-old Swiss females were divided into […] (six animals per group) and administered 30 mg/kg of P2 (group A) or vehicle (physiological water pH 7.5) (group B) once a day for 18 days via IP injection. During the treatment period, the clinical, physiological, and behavioral parameters, including body weight, food and water consumption, body condition score, home cage activity, and locomotion were constantly monitored and recorded.
Three days after the last administration, animals were anesthetized and blood was collected using a standard retro-orbital puncture from each animal. Next, the mice sacrificed and underwent complete necropsy with gross examination and organ weights. The organs (heart, liver, spleen, kidney, bone marrow, brain, lung) were sampled and immersed in fixative in 4% paraformaldehyde. […] Five-micrometer-thick sections taken from these blocks (Thermo Scientific Microm HM355S microtome) were then stained with hematoxylin and eosin (Leica ST5010 Autostainer XL) and evaluated under a Leica DM 2500 light microscope by a board-certified veterinary pathologist. […]

E. coli K-12 BW25113 = format: cell-based, Escherichia coli
Protocol: (§2) If the bactericidal effect of P2 is indeed mediated by a loss of protein homeostasis, the cellular chaperone machinery would be expected to counteract or limit the effect of the peptide. […] To ensure that this effect was not due to the reduced overall viability of the dnaK deletion strain, we also tested the MIC value at 30 °C and obtained the same result (MIC = 6 μg/mL). This confirms that the direct inhibition of chaperones and proteases is not the principal mechanism of action of P2. […] The deletion strains with the strongest effect largely matched those found in the IBs by MS, including those of the cotranslationally acting chaperones TF (tig), dnaK (Hsp70 family), and its cochaperone dnaJ, as well as the small Hsps hchA (Hsp31), hslO (Hsp33), and ipbA (α-crystallin family). The disaggregase clpB and the aggregation-controlling protease lon also had strong effects.
as §1
Knockout chaperon strains were purchased from Dharmacon E. coli Keio knockout collection, which contains a set of single-gene deletion mutants for chaperone E. coli K-12 genes. Each deleted gene has been replaced with a kanamycin (30 μg/ mL) resistance cassette.

E. coli BL21 = format: cell-based, Escherichia coli
Protocol: as §2, §1
Chaperone co-expression plasmids were purchased from Takara set (catalog# 3340), which consists of five different plasmids that contain chaperone plasmids developed by HSP Research Institute Inc. Plasmids were transformed into competent E. coli BL21. The co-expression chaperone strains are chloramphenicol selective of chaperone plasmid (20 μg/mL), and chaperone inducer depending on the chaperone plasmid used. pG-KJE8 (DnaK-dnaJ-grpE araB groES-groEL) induced by L-arabinose (0.5 mg/mL), tetracycline (1–5 ng/mL), pGro7 (groES-groEL) induced by L-arabinose (0.5 mg/mL), pKJE7 (dnaK-dnaJ-grpE) induced by L-arabinose (0.5 mg/mL), pG-Tf2 (groES-groEL-tig) induced by tetracycline (1–5 ng/mL), and pTf16 (tig) induced by L-arabinose (0.5 mg/mL).

`CC(C)C[C@H](NC(=O)CNC(=O)[C@H](CCCNC(=N)N)NC(=O)[C@@H]1CCCN1C(=O)[C@H](CCCNC(=N)N)NC(=O)[C@H](CCCNC(=N)N)NC(=O)[C@@H](NC(=O)[C@H](CC(C)C)NC(=O)[C@H](C)NC(=O)[C@H](CC(C)C)NC(=O)CNC(=O)[C@H](CC(C)C)NC(=O)CNC(=O)[C@@H](N)CCCNC(=N)N)C(C)C)C(=O)NCC(=O)N[C@@H](CC(C)C)C(=O)N[C@@H](C)C(=O)N[C@@H](CC(C)C)C(=O)N[C@H](C(=O)N[C@@H](CCCNC(=N)N)C(=O)N[C@@H](CCCNC(=N)N)C(=O)O)C(C)C` [P2] (H-RGLGLALVRRPRGLGLALVRR-OH) was tested, and the MIC (E. coli O157:H7; E. coli O157(:H7), HPLC-purified peptide, broth microdilution (EUCAST), LB, overnight 37 °C, OD 590 nm) was 6 µg/mL (≈ 2.61 µM), the “IC50, concentration at which bacterial growth is 50% inhibited” value (E. coli O157:H7; E. coli O157:H7) was 1.5 µg/mL (≈ 0.652 µM) and the MBC (E. coli O157) was 6 µg/mL (≈ 2.61 µM). For the same compound, the “LC50, concentration inducing 50% lysis of human erythrocytes” value (human erythrocytes) was 1,100 μg/mL, the tolerability in mice (Swiss mice) was “tolerated P2 treatments well” and the MIC (E. coli K-12 BW25113; KEIO WT) was 12 µg/mL (≈ 5.22 µM). For the same compound, the MIC (E. coli K-12 BW25113; dnaK deletion strain, tested at 30 °C) was 6 µg/mL (≈ 2.61 µM), the MIC (E. coli K-12 BW25113; gene deletion ∆ clpA) was 12 µg/mL (≈ 5.22 µM) and the MIC (E. coli K-12 BW25113; gene deletion ∆ clpB) was 12 µg/mL (≈ 5.22 µM). It also gave an MIC (E. coli K-12 BW25113; gene deletion ∆ clpP) of 12 µg/mL (≈ 5.22 µM), an MIC (E. coli K-12 BW25113; gene deletion ∆ clpS) of 12 µg/mL (≈ 5.22 µM) and an MIC (E. coli K-12 BW25113; gene deletion ∆ clpX) of 12 µg/mL (≈ 5.22 µM). The MIC (E. coli K-12 BW25113; gene deletion ∆ dnaJ) was 12 µg/mL (≈ 5.22 µM), the MIC (E. coli K-12 BW25113; gene deletion ∆ dnaK) was 6 µg/mL (≈ 2.61 µM) and the MIC (E. coli K-12 BW25113; gene deletion ∆ groL) was 12 µg/mL (≈ 5.22 µM). The MIC (E. coli K-12 BW25113; gene deletion ∆ hchA) was 6 µg/mL (≈ 2.61 µM), the MIC (E. coli K-12 BW25113; gene deletion ∆ hslO) was 12 µg/mL (≈ 5.22 µM) and the MIC (E. coli K-12 BW25113; gene deletion ∆ htpG) was 12 µg/mL (≈ 5.22 µM). The MIC (E. coli K-12 BW25113; gene deletion ∆ ibpA) was 12 µg/mL (≈ 5.22 µM), the MIC (E. coli K-12 BW25113; gene deletion ∆ ibpB) was 12 µg/mL (≈ 5.22 µM) and the MIC (E. coli K-12 BW25113; gene deletion ∆ lon) was 12 µg/mL (≈ 5.22 µM). For the same compound, the MIC (E. coli K-12 BW25113; gene deletion ∆ sulA) was 12 µg/mL (≈ 5.22 µM), the MIC (E. coli K-12 BW25113; gene deletion ∆ tig) was 12 µg/mL (≈ 5.22 µM) and the MIC (E. coli BL21; BL21, plasmid pG-KJE8, overexpressed dnaK-dnaJ-grpE groES-groEL) was 25 µg/mL (≈ 10.9 µM). The MIC (E. coli BL21; BL21, plasmid pG-Tf2, overexpressed groES-groEL-tig) was 25 µg/mL (≈ 10.9 µM), the MIC (E. coli BL21; BL21, plasmid pGro7, overexpressed groES-groEL) was 25 µg/mL (≈ 10.9 µM) and the MIC (E. coli BL21; BL21, plasmid pKJE7, overexpressed dnaK-dnaJ-grpE) was 25 µg/mL (≈ 10.9 µM). For the same compound, the MIC (E. coli BL21; BL21, plasmid pTf16, overexpressed tig) was 25 µg/mL (≈ 10.9 µM) and the MIC (E. coli BL21; BL21 wt, no plasmid) was 25 µg/mL (≈ 10.9 µM).
